As usually defined, the pIC50 is −log10 of the IC50, conventionally taken in molar units.

In US11401286B2 (Tetra Discovery Partners, LLC, priority 2012, dated 2022) one finds IC50 data, which are given here for 36 compounds.

pIC50: −log10 of the molar value. Where a name gives a salt, the structure may show the parent alone. Read-outs that look alike come from different tables or passages of the source. Where only a bound is given, the exact number is not on record here.

The target in this assay is PDE4D7 (Homo sapiens (Human), UniProt Q08499). Conditions: read-out: PDE4D7 IC50.
Chain of PDE4D7 (Q08499 other isoform, or with tags, fused parts or gaps): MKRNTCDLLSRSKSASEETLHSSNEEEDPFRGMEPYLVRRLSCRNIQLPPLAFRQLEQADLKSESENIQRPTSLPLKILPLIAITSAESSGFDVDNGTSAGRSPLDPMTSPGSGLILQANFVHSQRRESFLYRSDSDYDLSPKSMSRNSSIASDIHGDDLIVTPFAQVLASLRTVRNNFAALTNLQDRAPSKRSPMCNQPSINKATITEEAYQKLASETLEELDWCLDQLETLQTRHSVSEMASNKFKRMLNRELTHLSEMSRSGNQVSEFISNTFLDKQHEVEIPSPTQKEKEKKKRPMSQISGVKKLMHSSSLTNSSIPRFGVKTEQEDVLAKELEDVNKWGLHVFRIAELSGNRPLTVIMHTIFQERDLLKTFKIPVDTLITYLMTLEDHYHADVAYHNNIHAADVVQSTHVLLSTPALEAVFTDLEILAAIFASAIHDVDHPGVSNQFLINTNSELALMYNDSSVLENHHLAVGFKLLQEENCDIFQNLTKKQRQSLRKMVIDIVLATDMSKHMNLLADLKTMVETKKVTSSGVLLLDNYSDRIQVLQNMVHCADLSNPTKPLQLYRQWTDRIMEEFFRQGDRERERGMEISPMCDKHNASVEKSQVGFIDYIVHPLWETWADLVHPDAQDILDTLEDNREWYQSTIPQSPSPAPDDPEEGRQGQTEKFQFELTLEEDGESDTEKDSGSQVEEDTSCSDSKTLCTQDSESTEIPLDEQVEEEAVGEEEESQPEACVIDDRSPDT

Method: Here, a kinetic assay of cAMP hydrolysis by purified PDE4 was used, in which PDE4 activity was measured by coupling the formation of the PDE4 reaction product, 5′-adenosine monophosphate, to the oxidation of reduced nicotinamide adenine dinucleotide (NADH) by the use of three coupling enzymes (myokinase, pyruvate kinase and lactate dehydrogenase), which allows fluorescent determination of reaction rates. Assays are performed in 96-well plates in a total volume of 200 μl/well. Compounds are dissolved in dimethylsulfoxide (DMSO) and added to plates in a volume of 10 μl followed by addition of 165 μl of assay mix. Plates are pre-incubated at 25° C. for 15 min and the reactions are initiated by the addition of 25 μl of cAMP followed by thorough mixing. […] Initial rates (slopes) are determined from linear portions of the progress curves. Final concentrations of assay components are as follows: 50 mM Tris, pH 8, 10 mM MgCl2, 50 mM KCl, 2% DMSO, 5 mM tris(2-carboxyethyl)phosphine (TCEP), 0.4 mM phosphenolpyruvate (PEP), 0.01 mM NADH, 0.04 mM adenosine triphosphate (ATP), 0.004 mM cAMP, 7.5 units myokinase from yeast, 1.6 units pyruvate kinase, 2 units lactate dehydrogenase, and either 0.5 nM human PDE4D7 or 10 nM human PDE4B1. All data are percent normalized relative to controls and are presented as percent inhibition. […] Human PDE4D7 contained a mutation of serine 54 to aspartic acid to mimic activation by cAMP-dependent protein kinase A (PKA).
PDE4D7*=PDE4D7 containing a UCR1 activating mutation S54D.

Turning to `OCCc1ccc(C(O)c2cc(-c3cccc(Cl)c3)nc3c2CCC3)cc1` (stereo not drawn) [Example 263, 2-(4-((2-(3-Chlorophenyl)-6,7-dihydro-5H-cyclopenta[b]pyridin-4-yl)(hydroxy)methyl)phenyl)ethanol], under “PDE4D7 without asterisk”, the pIC50 is under 6.00. Same read-out and setting: the value for `OCCc1ccc(Cc2cc(C3CC3)nc(-c3cccc(Cl)c3)n2)cc1` [Example 210, 2-(4-((2-(3-Chlorophenyl)-6-cyclopropylpyrimidin-4-yl)methyl)phenyl)ethanol] was under 6.00; that for `OCCc1ccc(Nc2cc(C3CCCCC3)nc3c2CCC3)cc1` [Example 251, 2-(4-((2-cyclohexyl-6,7-dihydro-5H-cyclopenta[b]pyridin-4-yl)amino)phenyl)ethanol hydrochloride] was under 6.00; that for `NS(=O)(=O)Cc1ccc(Nc2nc(-c3cccc(Cl)c3)nc3c2CCC3)cc1` [Example 180, (4-((2-(3-Chlorophenyl)-6,7-dihydro-5H-cyclopenta[d]pyrimidin-4-yl)amino)phenyl)methanesulfonamide] was under 6.00.

On to `CCc1cc(Oc2ccc(CC(N)=O)cc2)nc(-c2cccc(Cl)c2)n1` [Example 181, 2-(4-((2-(3-Chlorophenyl)-6-ethylpyrimidin-4-yl)oxy)phenyl)acetamide], for which the negative-log IC50 (pIC50) was under 6.00. In the case of `CCc1c(C)nc(-c2ccc(Cl)s2)nc1Nc1ccc(CC(=O)NC#N)cc1` [Example 301, 2-[4-[[2-(5-Chloro-2-thienyl)-5-ethyl-6-methyl-pyrimidin-4-yl]amino]phenyl]-N-cyano-acetamide], the pIC50 (PDE4D7 without asterisk) is under 6.00. In the case of `CCc1cc(Nc2ccc(CCO)cc2)nc(C2CCCC2)n1` [Example 222, 2-(4-((2-Cyclopentyl-6-ethylpyrimidin-4-yl)amino)phenyl)ethanol], the pIC50 (PDE4D7 without asterisk) is over 6.00.

For the compound `CCc1cc(Cc2ccc(CCO)cc2)nc(C2CCCC2)n1` [Example 225, 2-(4-((2-Cyclopentyl-6-ethylpyrimidin-4-yl)methyl)phenyl)ethanol], the pIC50 (PDE4D7 without asterisk) is under 6.00. For the compound `Cc1cc(Nc2nc(-c3cccc(Cl)c3)nc3c2CCC3)ccc1CC#N` [Example 177, 2-(4-((2-(3-Chlorophenyl)-6,7-dihydro-5H-cyclopenta[d]pyrimidin-4-yl)amino)-2-methylphenyl)acetonitrile], the pIC50 (PDE4D7 without asterisk) is under 6.00. As to `O=C(O)Cc1ccc(Cc2cc(C(F)(F)F)nc(OC3CCCC3)n2)cc1` [Example 200, 2-(4-((2-(Cyclopentyloxy)-6-(trifluoromethyl)pyrimidin-4-yl)methyl)phenyl)acetic acid], under “PDE4D7 without asterisk”, the pIC50 was under 6.00. The same measure, in the same setting: to `NC(=O)Cc1ccc(Nc2cc(C3=CCCC3)nc3c2CCC3)cc1` [Example 246, 2-(4-((2-(Cyclopent-1-en-1-yl)-6,7-dihydro-5H-cyclopenta[b]pyridin-4-yl)amino)phenyl)acetamide hydrochloride] belongs under 6.00; to `Clc1cccc(-c2nc3c(c(Nc4ccc(Cc5ncco5)cc4)n2)CCC3)c1` [Example 179, 2-(3-Chlorophenyl)-N-(4-(oxazol-2-ylmethyl)phenyl)-6,7-dihydro-5H-cyclopenta[d]pyrimidin-4-amine], under 6.00; to `O=C(O)CCc1ccc(Nc2nc(-c3ccc(Cl)s3)nc3c2CCC3)cc1` [Example 15, 3-[4-[[2-(5-Chloro-2-thienyl)-6,7-dihydro-5H-cyclopenta[d]pyrimidin-4-yl]amino]phenyl]propanoic acid], under 6.00. `CC(C)(CO)c1ccc(Cc2cc(-c3cccc(Cl)c3)nc3c2CCC3)cc1` [Example 128, 2-(4-((2-(3-Chlorophenyl)-6,7-dihydro-5H-cyclopenta[b]pyridin-4-yl)methyl)phenyl)-2-methylpropan-1-ol hydrochloride]: under “PDE4D7 without asterisk”, the pIC50 was under 6.00. Regarding `Cc1cc(Nc2cc(-c3cccc(Cl)c3)nc3c2CCC3)ccc1CC(N)=O` [Example 111, 2-(4-((2-(3-Chlorophenyl)-6,7-dihydro-5H-cyclopenta[b]pyridin-4-yl)amino)-2-methylphenyl)acetamide hydrochloride], the pIC50 (PDE4D7 without asterisk) was under 6.00. `NC(=O)C[C@H]1CC[C@H](Nc2cc(-c3cccc(Cl)c3)nc3c2CCC3)CC1` [Example 96, Trans-2-(4-((2-(3-Chlorophenyl)-6,7-dihydro-5H-cyclopenta[b]pyridin-4-yl)amino)cyclohexyl)acetamide hydrochloride]: under “PDE4D7 without asterisk”, the negative-log IC50 (pIC50) is under 6.00. Take `N#CCc1ccc(Nc2c(Cl)c(-c3cccc(Cl)c3)nc3c2CCC3)cc1` [Example 291, 2-(4-((3-Chloro-2-(3-chlorophenyl)-6,7-dihydro-5H-cyclopenta[b]pyridin-4-yl)amino)phenyl)acetonitrile hydrochloride]: the pIC50 (PDE4D7 without asterisk) is under 6.00. For `OCCc1ccc(Nc2cc(-c3cc(F)cc(Cl)c3)nc3c2CCC3)cc1` [Example 153, 2-(4-((2-(3-Chloro-5-fluorophenyl)-6,7-dihydro-5H-cyclopenta[b]pyridin-4-yl)amino)phenyl)ethanol hydrochloride], where the note is “PDE4D7 without asterisk”, the pIC50 is under 6.00.

As to `CCc1c(C)nc(-c2ccc(Cl)s2)nc1Nc1ccc(C2=C(O)CCC2=O)cc1` [Example 303, 2-[4-[[2-(5-Chloro-2-thienyl)-5-ethyl-6-methyl-pyrimidin-4-yl]amino]phenyl]-3-hydroxy-cyclopent-2-en-1-one], the pIC50 (PDE4D7 without asterisk) was under 6.00.

Consider `OC(Cc1ccc(Nc2nc(-c3cccc(Cl)c3)nc3c2CCC3)cc1)C(F)(F)F` (stereo not drawn) [Example 176, 3-(4-((2-(3-Chlorophenyl)-6,7-dihydro-5H-cyclopenta[d]pyrimidin-4-yl)amino)phenyl)-1,1,1-trifluoropropan-2-ol], for which the pIC50 (PDE4D7 without asterisk) is under 6.00.

In the case of `CCc1cc(Cc2ccc(CC(=O)OC)cc2)nc(C2CCCC2)n1` [Example 223, Methyl 2-(4-((2-cyclopentyl-6-ethylpyrimidin-4-yl)methyl)phenyl)acetate], where the note is “PDE4D7 without asterisk”, the negative logarithm of the IC50 (pIC50) is under 6.00.

On to `NC(=O)Cc1ccc(Nc2cc(-c3cccc(Cl)c3)nc3c2CCC3)cc1F` [Example 112, 2-(4-((2-(3-Chlorophenyl)-6,7-dihydro-5H-cyclopenta[b]pyridin-4-yl)amino)-2-fluorophenyl)acetamide hydrochloride], for which the pIC50 (PDE4D7 without asterisk) is under 6.00.

Consider `CCc1c(C)nc(-c2ccc(Cl)s2)nc1Nc1ccc(Cc2nc(C(=O)OC)c[nH]2)cc1` [Example 305, Methyl 2-[[4-[[2-(5-chloro-2-thienyl)-5-ethyl-6-methyl-pyrimidin-4-yl]amino]phenyl]methyl]-1H-imidazole-4-carboxylate], for which the pIC50 (PDE4D7 without asterisk) is under 6.00. As for `OCCc1ccc(Nc2cc(C3CC3)nc(-c3cccc(Cl)c3)n2)cc1` [Example 206, 2-(4-((2-(3-Chlorophenyl)-6-cyclopropylpyrimidin-4-yl)amino)phenyl)ethanol], the pIC50 (PDE4D7 without asterisk) is over 6.00. In the case of `OCCc1ccc(Nc2cc(-c3cccc(Cl)c3)nc3c2CCC3)nc1` [Example 92, 2-(6-((2-(3-Chlorophenyl)-6,7-dihydro-5H-cyclopenta[b]pyridin-4-yl)amino)pyridin-3-yl)ethanol hydrochloride], the pIC50 was under 6.00. On to `NC(=O)Cc1ccc(Nc2cc(C3CC3)nc(-c3cccc(Cl)c3)n2)nc1` [Example 212, 2-(6-((2-(3-Chlorophenyl)-6-cyclopropylpyrimidin-4-yl)amino)pyridin-3-yl)acetamide], for which the pIC50 (PDE4D7 without asterisk) is under 6.00.

On to `NC(=O)Cc1ccc(Cc2nc(-c3cccc(Cl)c3)nc3c2S(=O)(=O)CCC3)cc1` [Example 277, 2-(4-((2-(3-Chlorophenyl)-5,5-dioxido-7,8-dihydro-6H-thiopyrano[3,2-d]pyrimidin-4-yl)methyl)phenyl)acetamide], for which the pIC50 (PDE4D7 without asterisk) was over 6.00. Consider `CN(C)CCc1ccc(Nc2cc(-c3cccc(Cl)c3)nc3c2CCC3)cc1` [Example 105, 2-(3-Chlorophenyl)-N-(4-(2-(dimethylamino)ethyl)phenyl)-6,7-dihydro-5H-cyclopenta[b]pyridin-4-amine hydrochloride], for which the pIC50 is under 6.00. Consider `Clc1cccc(-c2cc(Nc3ccc(Cc4ncco4)cc3)c3c(n2)CCC3)c1` [Example 114, 2-(3-Chlorophenyl)-N-(4-(oxazol-2-ylmethyl)phenyl)-6,7-dihydro-5H-cyclopenta[b]pyridin-4-amine hydrochloride], for which the pIC50 (PDE4D7 without asterisk) was under 6.00. Take `NC(=O)Cc1ccc(Nc2cc(-c3cccc(Cl)c3)nc(C3CC3)c2)cc1` [Example 139, 2-(4-((2-(3-Chlorophenyl)-6-cyclopropylpyridin-4-yl)amino)phenyl)acetamide hydrochloride]: the pIC50 (PDE4D7 without asterisk) is over 6.00.

As to `OCc1ccc(Nc2cc(-c3cccc(Cl)c3)nc3c2CCC3)cc1` [Example 88, (4-((2-(3-Chlorophenyl)-6,7-dihydro-5H-cyclopenta[b]pyridin-4-yl)amino)phenyl)methanol], for the setting “PDE4D7 without asterisk”, the pIC50 is under 6.00. Consider `CC(C)Oc1cc(Nc2ccc(CCO)cc2)c2c(n1)CCC2` [Example 260, 2-(4-((2-Isopropoxy-6,7-dihydro-5H-cyclopenta[b]pyridin-4-yl)amino)phenyl)ethanol hydrochloride], for which the pIC50 (PDE4D7 without asterisk) was under 6.00. Regarding `O=S1(=O)CCCc2nc(C3CCCC3)nc(Nc3ccc(CCCO)cc3)c21` [Example 287, 2-Cyclopentyl-4-((4-(3-hydroxypropyl)phenyl)amino)-7,8-dihydro-6H-thiopyrano[3,2-d]pyrimidine 5,5-dioxide], the pIC50 (PDE4D7 without asterisk) was over 6.00. Consider `OCCc1ccc(Nc2cc(-c3ccc(Cl)c(Cl)c3)nc3c2CCC3)cc1` [Example 154, 2-(4-((2-(3,4-Dichlorophenyl)-6,7-dihydro-5H-cyclopenta[b]pyridin-4-yl)amino)phenyl)ethanol hydrochloride], for which the negative-log IC50 (pIC50) (PDE4D7 without asterisk) was under 6.00. In the case of `CCc1c(C)nc(-c2ccc(Cl)s2)nc1Nc1ccc2c(c1)CS(=O)(=O)C2` [Example 312, 2-(5-Chloro-2-thienyl)-N-(2,2-dioxo-1,3-dihydro-2-benzothiophen-5-yl)-5-ethyl-6-methyl-pyrimidin-4-amine], the negative logarithm of the IC50 (pIC50) (PDE4D7 without asterisk) was under 6.00.

In the case of `NC(=O)C(CO)Cc1ccc(Nc2cc(-c3cccc(Cl)c3)nc3c2CCC3)cc1` (stereo not drawn) [Example 108, 2-(4-((2-(3-Chlorophenyl)-6,7-dihydro-5H-cyclopenta[b]pyridin-4-yl)amino)benzyl)-3-hydroxypropanamide hydrochloride], where the note is “PDE4D7 without asterisk”, the negative logarithm of the IC50 (pIC50) was over 6.00.
